# Assays:
# Type in all cases: in vivo, Sprague-Dawley rats
# [1] = tested on: CD38; assay: Western blot of CD38 expression in liver tissues of streptozotocin-induced diabetic rats; settings: STZ diabetic rats, liver tissue, daily treatment for 28 days from day 15 after STZ, densitometry, n=6; normal control 100, diabetic control 112
# [2] = tested on: GLUT4; assay: Western blot of GLUT4 expression in skeletal muscles of streptozotocin-induced diabetic rats; settings: STZ diabetic rats, skeletal muscle membrane, daily treatment for 28 days from day 15 after STZ, i.p. (Table 1), densitometry, n=6; normal control 100, diabetic control 80
# [3] = tested on: GLUT4; assay: as above; parameters: concentration or dose not given beside the values; settings: STZ diabetic rats, skeletal muscle, 28 days treatment, versus diabetic control G2
# Procedure: (§1) “To evaluate the antidiabetic potential of the present compositions and its mechanistic role in controlling damages of vital tissues in streptozotocin-induced diabetic rats.”
# (§2) • Species: Rats • Strain: Sprague-Dawley • Sex: Male • No. of animals: 36 Animals (n=6 per group) • Body weight: 110-130 g Animal House conditions • Lighting: 12/12-hour light-dark cycle • Temperature: 22±3° C. • Relative Humidity: 40 to 60%
# (§3) Acclimatization: Animals have been acclimatized to the animal house environment for 2 weeks. The animal experiments were designed and conducted strictly in accordance with the guidelines of AEC. Streptozotocin (STZ) was freshly prepared in 0.1M citrate buffer (pH 4.5). T2D was induced experimentally by single intraperitoneal (i.p.) injection of low dose STZ (40 mg per kg) to the rats, kept fasted overnight. Animals were unfed for 12 h before the estimation of fasting blood glucose. When the fasting plasma glucose level had become above 250 mg dL-1 in 72 h after STZ administration, STZ treated animals were considered as diabetic and all the experimental animals were then kept without any treatment for a period of 2 weeks. The composition treatment was started on 15th day after STZ injection in the respective groups of rats.
# (§4) Test sample was dissolved in water containing 0.1% v/v Dimethyl Sulfoxide (DMSO) for animal treatment. Diabetic rats were then treated with intracerebroventricular (i.c.v.) administration of test samples. The animals were divided in six groups each of which contained six rats:
# (§5) Daily food and water consumptions were observed and body weights were taken on a weekly basis. After 72 h of STZ administration, blood was drawn from tail vein of rats and fasting blood glucose was measured by glucometer. On the last day of the experiment, all rats were sacrificed by common method of euthanasia. All animals were unfed for 12 h before being killed. Liver, kidneys, pancreas tissues and skeleton muscles were removed surgically and stored at −80° C. in a deep freezer for western blot analysis.
# (§6) GLUT4 and CD38 expressions were evaluated by Western blot. For GLUT4 content analysis, membrane samples were prepared from skeletal muscles and for CD38 protein analysis, liver tissues were used. In Western blot analysis, 25 μg of membrane protein per sample was subjected to Sodium Dodecyl Sulfate (SDS) polyacrylamide gel electrophoresis in parallel with molecular weight markers on a 10% resolving gel. The separated proteins were then transferred to a nitrocellulose membrane in a semidry system. β-tubulin was used to ensure equivalent loading of the gel incubating the same membrane with β-tubulin antibody after stripping.
# (§7) Western blotting kit was used for immunodetection, using anti-GLUT4 and anti-CD38 antibodies. Detection was done by the enhanced chemiluminescence method and densitometric quantitation was done by scanning of the autoradiographic GLUT4 and CD38 signals with the help of software. Densitometric scanning was indicated the (percentage of band intensity) of GLUT4 bands and CD38 bands of test samples treated diabetic rats and diabetic control rats. Data were expressed as percentage increase or decrease of intensity of band.
# (§8) Each value represents mean±SD (n=6). The significance of in vivo data was analyzed by one-way Anova followed by Dunnet test. P<0.05 was considered as significant.
# [4] = tested on: CD38; assay: Western blot of CD38 expression in liver tissues of streptozotocin-induced diabetic rats; parameters: % Decrease of CD38 Disease control: concentration or dose not given beside the values; settings: STZ diabetic rats; for % Decrease of CD38 Disease control: liver tissue, 28 days treatment, versus diabetic control G2
# Procedure: as §1, §2, §3, §4, §5, §6, §7, §8
SMILES,Band Intensity of CD38 (%) 45 kDa [1] [%],Band Intensity of GLUT4 (%) 54 kDa [2] [%],% Increase of Glut4 over Disease control [3] [%],downregulation of CD38 (result in words) ([4]; discussion of the Western blot results),% Decrease of CD38 Disease control [4] [%]
"CC1=CC(=O)CC(C)(C)[C@@]1(O)/C=C/C(C)=C\C(=O)O [Composition G3, (2Z,4E)-5-[(1S)-1-hydroxy-2,6,6-trimethyl-4-oxocyclohex-2-en-1-yl]-3-methylpenta-2,4-dienoic acid]",95,110,37.5,not sufficient to give significant results,15.2
"CC(CN)C(=O)O (stereo not drawn) [Composition G4, 3-Aminoisobutyric acid]",99,104,30.0,,11.6
"C[S+]([O-])CCCCN=C=S (stereo not drawn) [Composition G5, 1-isothiocyanato-4-methylsulfinylbutane]",102,95,18.8,,8.9
"O=C(O)CC(=O)C(=O)O [Composition G6, Oxobutanedioic acid]",101,102,27.5,,9.8
"C[C@H](O)C(=O)N[C@@H](Cc1ccccc1)C(=O)O [Composition G7, (2S)-2-[[(2S)-2-hydroxypropanoyl]amino]-3-phenylpropanoic acid]",96,106,32.5,,14.3
"CCCCCCCCCCCCCCC(=O)O [Composition G8, Pentadecanoic acid]",103,100,25.0,,8.0
"CC(C)CC(N)C(=O)NC(CC(C)C)C(=O)O (stereo not drawn) [Composition G9, Dileucine]",99,98,22.5,,11.6
"CC1=C(O)C(=O)C=C2C1=CC=C1[C@@]2(C)CC[C@@]2(C)[C@@H]3C[C@](C)(C(=O)O)CC[C@]3(C)CC[C@]12C [Composition G10, (2R,4aS,6aR,6aS,14aS,14bR)-10-hydroxy-2,4a,6a,6a,9,14a-hexamethyl-11-oxo-1,3,4,5,6,13,14,14b-octahydropicene-2-carboxylic acid]",101,95,18.8,,9.8

# Reference: patent publication US20260263406A1, “SYNERGISTIC COMPOSITION FOR MODULATING EXPRESSION OF CD38” (CELAGENEX RESEARCH (INDIA) PVT. LTD., priority 2023, published 2026)
